Source: patent US7398161B2, “Sampling method and sampling device, and logD measuring method and logD measuring system” (Banyu Pharmaceutical Co., Ltd., priority 2004, dated 2008)

Legend:
[1] = J. Med. Chem. 2001, 44, 2490-2497; cited from earlier work
[2] = logD measurement by sampling of octanol/buffer two-layer sample with plug liquid, HPLC and mass spectrometer; conditions: octanol/buffer solution

Structure (SMILES) | logD (physchem) | logD, Literature value [1] | logD, Measured value ([2]; average of three measurements (only one measurement for amiodarone)) | logD [2]
C[C@]12CC[C@@H]3c4ccc(O)cc4CC[C@H]3[C@@H]1CC[C@@H]2O [estradiol] | 3.9 | – | – | –
C[C@@H]1C[C@H]2[C@@H]3CCC4=CC(=O)C=C[C@]4(C)[C@@]3(F)[C@@H](O)C[C@]2(C)[C@@]1(O)C(=O)CO [Dexamethason] | – | 1.83 | 1.9 | –
CC(C)(C)NCC(O)c1cc(O)cc(O)c1 (stereo not drawn) [Terbutaline] | – | −1.35 | – | -1.9
COc1ccc([C@@H]2Sc3ccccc3N(CCN(C)C)C(=O)[C@@H]2OC(C)=O)cc1 [Diltiazem] | 2.3 | 2.06 | – | –
c1ccc(-c2ccc(C(c3ccccc3)n3ccnc3)cc2)cc1 (stereo not drawn) [bifonazole] | 5.2 | 4.77 | – | –
COCCc1ccc(OCC(O)CNC(C)C)cc1 (stereo not drawn) [Metoprolol] | 0.3 | – | – | –
C=CCc1ccccc1OCC(O)CNC(C)C (stereo not drawn) [Alprenolol] | – | 0.97 | – | 1.2
CN(C)CCCN1c2ccccc2Sc2ccc(Cl)cc21 [Chlorpromazine] | 3.5 | – | – | –
NC(=O)N1c2ccccc2C=Cc2ccccc21 [Carbamazepine] | 1.8 | 2.19 | – | –
